Measurements as given in patent US9521845B2, “Beta-lactones as antibacterial agents” (LUDWIG-MAXIMILIANS-UNIVERSITÄT-MÜNCHEN, priority 2008, dated 2016).

What was measured:
[1] = target: T1, ClpP (Listeria monocytogenes serovar 1/2a, UniProt Q9RQI6); test: In vivo labeling of Listeria proteomes; assay type: cell-based; conditions: living L. monocytogenes EGDe, cytosol, 2 h incubation
T1 construct: endogenous in cells; host or cells: living Listeria monocytogenes EGDe, stationary phase
Protocol: For analytical and preparative in vivo studies, Listeria were grown to stationary phase and harvested by centrifugation at 4,000 rpm 1 h after entrance in the stationary phase (1.5 ml for analytical and 15 ml for preparative studies). The cell pellets were washed once with PBS and resuspended in 100 μL and 500 μL PBS for analytical and preparative studies, respectively. The cell suspensions were incubated for 2 h with varying concentrations of probe at room temperature. Probes were applied from DMSO stocks whereby DMSO never exceeded 2% in the final solution. For preparative experiments, 50 μM of the probes was added to the cells resuspended in PBS. After incubation, the cells were washed thoroughly three times with PBS to remove excess probe from the supernatant. Subsequently the cells were lysed in 100 μL (500 μL) PBS by sonication with a Bandelin Sonopuls with 3×20 sec. pulsed at 70% max. power. For analytical experiments 44 μL proteome were used to append a reporter tag via CC, such that once CC reagents were added, the total reaction volume was 50 μL. In preparative purposes the total volume of 500 μL it was consumed per experiment. Reporter tagged-azide reagents (13 μM rhodamine-azide for analytical or 20 μM rhodamine-biotin-azide for preparative scale) were added followed by 1 mM TCEP and 100 μM ligand. Samples were gently vortexed and the cycloaddition initiated by the addition of 1 mM CuSO4. The reactions were incubated at room temperature for 1 h. For analytical gel electrophoresis, 50 μL 2×SDS loading buffer were added and 50 μL applied on the gel. Fluorescence was recorded in a Fujifilm Las-3000 Fluoreszenz Darkbox with a Fujinon VRF 43LMD Lens, 605DF40 filter and 520 nm EPI excitation wavelength.

[2] = tested on: proteolysis abilities of Staphylococcus aureus; test: Milk agar plate-based proteolysis assay; assay type: cell-based; conditions: for proteolytic activity of S. aureus: total amount of 250 nmol applied on Whatman Cards, 1% skim milk LB agar, 37° C. over night
Protocol: FIG. 6: Milk agar plate-based assay illustrating that beta-lactones have an effect on the proteolysis abilities of Staphylococcus aureus. 2.5 μL of S. aureus LB dilution (OD600=0.13 corresponding to approx. 1×10^8 cfu/ml) and 2.5 μL DMSO/beta-lactone in DMSO were applied on Whatman Cards placed on 1% skim milk LB agar plates and incubated at 37° C. over night. A) Direct comparison of beta-lactones as shown in FIG. 2 at a total amount of 250 nmol applied on Whatman Cards. B) Dose down with beta-lactones D3, E2 and G2 at applied concentrations of 100 mM, 50 mM, 25 mM, 12.5 mM, 6.25 mM and 0 mM (corresponding to total amounts of 250 nmol, 125 nmol, 62.5 nmol, 31.3 nmol, 15.6 nmol and 0 nmol, respectively). C) Proteolysis zone size plotted against the total amount of the respective beta-lactone.
2.5 μL of S. aureus LB dilution (OD600=0.13 corresponding to approx. 1×10^8 cfu/ml) and 2.5 μL DMSO/beta-lactone in DMSO were applied on Whatman Cards placed on 1% skim milk LB agar plates and incubated at 37° C. over night. FIG. 6A directly compares the β-lactones at a total amount of 250 nmol applied on Whatman Cards. […] For D3 and E2 almost no proteolysis is observed down to a total amount of 125 nmol of the respective beta-lactone. FIG. 6C illustrates that the proteolysis zone size plotted against the total amount of beta-lactone visualizes the strong effects particularly of D3 and E2.

[3] = tested on: haemolysis abilities of Staphylococcus aureus; test: Blood agar plate-based haemolysis assay; assay type: cell-based; conditions: total amount of 250 nmol applied on Whatman Cards, 5% sheep blood agar, 37° C. over night
Protocol: FIG. 3: Blood agar plate-based assay illustrating that beta-lactones have an effect on the haemolysis abilities of Staphylococcus aureus. 2.5 μL of S. aureus LB dilution (OD600=0.13 corresponding to approx. 1×10^8 cfu/ml) and 2.5 μL DMSO/lactone in DMSO were applied on Whatman Cards placed on 5% sheep blood agar plates (Heipha Diagnostika, Eppelheim, Germany) and incubated at 37° C. over night. A) Direct comparison of beta-lactones as shown in FIG. 2 at a total amount of 250 nmol applied on Whatman Cards. B) Dose down with beta-lactone compounds D3, E2 and G2 at applied concentrations of 100 mM, 50 mM, 25 mM, 12.5 mM, 6.25 mM and 0 mM (corresponding to total amounts of 250 nmol, 125 nmol, 62.5 nmol, 31.3 nmol, 15.6 nmol and 0 nmol, respectively).
2.5 μl, of S. aureus LB dilution (OD600 0.13 corresponding to approx. 1×10^8 cfu/ml) and 2.5 μL DMSO/beta-lactone in DMSO were applied on Whatman Cards placed on 5% sheep blood agar plates (Heipha Diagnostika, Eppelheim, Germany) and incubated at 37° C. over night. FIG. 3A directly compares the β-lactones at a total amount of 250 nmol applied on Whatman Cards. […] For D3 almost no haemolysis is observed down to a total amount of 125 nmol lactone. FIG. 5 illustrates the haemolytic activity of beta-lactone compounds D3, E2 and G2 plotted against the total amount of the respective beta-lactone, whereby a haemolysis zone size of 1.5 mm was set as 100% haemolytic activity. The data shown in FIG. 5 has been corroborated by further experimental testing.
Haemolysis was tested on blood agar plates (5% sheep blood; Heipha Diagnostika, Eppelheim, Germany). Sterile circles of Whatman cards (No. Y) with 5 mm diameter were placed on agar plates and inoculated with 2.5 μL of the corresponding beta-lactone/DMSO and 2.5 μL stationary phase culture of S. aureus diluted to […]. The plates were incubated over night at 37° C. and the diameters of the zones around the bacterial colonies were precisely measured using a vernier caliper.

[4] = tested on: LLO haemolytic activity of L. monocytogenes EGDe; test: LLO haemolytic activity testing of culture supernatants; assay type: cell-based, Listeria monocytogenes EGDe
Protocol: Overnight cultures of L. monocytogenes EGDe were harvested by centrifugation and resuspended in an equal volume of fresh BHB medium. In 1.5 mL Eppendorf tubes, 400 μL of BHB medium were inoculated with 4 μL of the resuspended Listeria culture and 4 μL of a corresponding beta-lactone stock in DMSO. The final concentrations were 800 μM, 400 μM, 200 μM, 100 μM and DMSO as control. The amount of DMSO in all tests was 1% of the medium. After mixing, the test tubes were incubated under continuous shaking at 200 rpm at 37° C. for 16 h. Then, cells were centrifuged and the supernatants filtered sterile by passing them through a 0.2 μm pore size filter. Haemolytic activity of LLO in the culture supernatants was quantitatively investigated according to a method described in J. Food Safety 1998, 18: 197-203 (incorporated herein by reference) with some modifications. In Nunclon™ 96-well plates with round shaped wells 100 μL of serial dilutions of the supernatants in PBS were added per well and incubated with 100 μL of 3% SRBC (sheep red blood cells) resuspended in PBS for 15 min at 37° C. under gentle shaking. The 96-well plates were centrifuged at 600 rpm for 5 min and the minimum dilution at which intact blood cells began to form a pellet was recorded. Controls with no lactone were set 100%. Buffer only controls and pure BHB medium yielded no haemolysis.

[5] = tested on: serine proteases; test: Competitive labeling with PMSF; assay type: binding; conditions: 100 fold excess, 15 min prior to beta-lactone probes
Protocol: (§1) FIG. 13: Active site competition assays and IC50. A) Competition experiment with KAS II with and without 100 fold excess of cerulenin in presence of the beta-lactone probe G2. B) Competition experiments with several serine proteases with and without 100 fold excess of PMSF in presence of the corresponding beta-lactone probes (LWC: L. welshimeri cytosol, LWM: L. welshimeri membrane, BSC: B. subtilis cytosol). C) IC50 of 5 μM for SFGH. For a list of abbreviations, please refer to Example 6, Table 1. The term PNB is also referred to herein as PNBE.
(§2) In competitive assays, a 100 fold excess of PMSF or cerulenin was added to the proteome 15 min prior to beta-lactone addition.

[6] = tested on: bacterial proteomes; test: ABPP labeling of bacterial proteomes, labeling profile; assay type: binding; conditions: 50 μM probe
Text: The library of beta-lactones to be tested comprised compounds with aliphatic or aromatic substitutions varying in length and branching. To evaluate the target selectivity, the beta-lactones were screened against several gram-positive and gram-negative bacterial proteomes including Pseudomonas putida, Listeria welshimeri, Bacillus licheniformis, Bacillus subtilis and Escherichia coli, which are phylogenetically related to pathogenic strains. In addition, mouse liver cytosol was included as an eukaryotic reference proteome. Initial labeling experiments were carried out by adding individual probes at 50 μM concentration to the proteome which is sufficient to achieve full saturation of most targets. […] As an example, labeling of L. welshimeri cytosolic and membrane proteomes as well as B. subtilis cytosolic proteome with a subset of the most complementary probes is shown in FIGS. 9A and 9B. […] Most of the targeted proteins were of low abundance as shown by the direct comparison of the relative intensities observed with Coomassie staining vs. fluorescence scanning (FIG. 11).
(§3) Proteome samples were adjusted to a final concentration of 1 mg protein/mL by dilution in PBS prior to probe labeling. Experiments for visualization by 1D SDS-PAGE were carried out in 43 μL total volume and those for affinity enrichment in 1892 μL total volume, such that once CC reagents were added, the total reaction volume was 50 μL and 2 mL, respectively. Reactions were initiated by addition of the probe and allowed to incubate for 60 min at room temperature. For heat controls the proteome was denatured with 1 μL of 43% SDS at 95° C. for 6 min and cooled to room temperature before the probe was applied. Following incubation, reporter tagged-azide reagents (13 μM rhodamine-azide for analytical or 20 μM rhodamine-biotin-azide for preparative scale) were added followed by 1 mM TCEP and 100 μM ligand. Samples were gently vortexed and the cycloaddition initiated by the addition of 1 mM CuSO4. The reactions were incubated at room temperature for 1 h (Speers, J. Amer. Chem. Soc. 125 (2003), 4686).

[7] = tested on: lipase/acylhydrolase (LipAc); test: ABPP probe dose down in proteome, lipase/acylhydrolase labeling; assay type: binding; conditions: L. welshimeri proteome, concentration range 10 μM to 5 nM
Protocol: To estimate the strength of probe interactions with proteins in the proteome, we compared the reactivity profiles of selected beta-lactones across a broad concentration range from 10 μM to 5 nM.
as §3

[8] = tested on: KAS II; test: Competitive labeling with cerulenin; assay type: binding; conditions: 100 fold excess, 15 min prior to beta-lactone probe G2
Protocol: as §1, §2

T1 sequence (Q9RQI6 whole entry): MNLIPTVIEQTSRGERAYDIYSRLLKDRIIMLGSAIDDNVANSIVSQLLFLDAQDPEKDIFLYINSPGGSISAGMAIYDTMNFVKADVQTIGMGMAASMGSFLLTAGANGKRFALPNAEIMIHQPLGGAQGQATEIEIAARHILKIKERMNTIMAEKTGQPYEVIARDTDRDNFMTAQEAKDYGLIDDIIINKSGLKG

With C#CCCCC1OC(=O)C1(C)C (stereo not drawn) [M1, trans-3,3-dimethyl-4-(4-pentyn-1-yl)oxetan-2-one, reference compound] the “ClpP labeling (probe potency ranking)” value [1] was “did not label and inhibit ClpP”, the “proteolytic activity of S. aureus” value [2] was “no effect” and the “haemolytic activity of S. aureus” value [3] was “no effect”. The effect on haemolysis ([4]; control probe) was “no effect” and the “lysis of blood cells by culture supernatant” value ([4]; fourfold dilution of supernatant, even at 800 μM) was “complete lysis”.
With O=S(=O)(F)Cc1ccccc1 [PMSF] the “effect of pre-incubation on probe labeling of serine proteases” value [5] was “prevented subsequent probe labeling”.
For C#CCCCC1OC(=O)C12CCCCC2 (stereo not shown) [O1, 4-(4-pentyn-1-yl)oxetan-2-one-3-spirocyclohexane], the “enzyme labeling in proteomes” value [6] was “decreased the number of specific labeling events”.
With C#CCCC[C@H]1OC(=O)[C@H]1C(C)(C)C (relative stereo) [L1, cis-3-dimethylethyl-4-(4-pentyn-1-yl)oxetan-2-one] the “enzyme labeling in proteomes” value [6] was “decreased the number of specific labeling events”.
C#CCCC[C@@H]1OC(=O)[C@H]1c1ccc2ccccc2c1 (relative stereo) [P1, trans-3-(2-naphthyl)-4-(4-pentyn-1-yl)oxetan-2-one, reference compound] was tested, and the “probe concentration down to which LipAc is labeled” value [7] was 160 nM.
In the case of C#CCCCC1CC(=O)O1 (stereo not shown) [A1, 4-(4-Pentyn-1-yl)oxetan-2-one], the “enzyme labeling in proteomes” value [6] is reported as “poor in enzyme labeling”.
In the case of C#CCCCC1OC(=O)C1c1ccc(OC)cc1 (stereo not drawn) [E2, trans-3-(4-methoxyphenyl)-4-(4-pentyn-1-yl)oxetan-2-one], the “total amount down to which almost no proteolysis is observed” value ([2]; dose down 250-15.6 nmol) is reported as 125 nmol, the “proteolytic activity of S. aureus” value [2] is reported as “strongly reduce” and the “haemolytic activity of S. aureus” value [3] is reported as “strongly reduce”.
With C#CCCC[C@@H]1OC(=O)[C@H]1CCCCCCCC(=O)Sc1ccccc1 (relative stereo) [N1, trans-S-phenyl 8-(2-oxo-4-(4-pentyn-1-yl)oxetan-3-yl)octanethioate] the “ClpP labeling (probe potency ranking)” value [1] was “most potent probes” and the EC50 ([4]; Listeria monocytogenes, Erythrocyte, cultures grown 16 h with lactone, sheep red blood cells, read-out: EC50 of reduction of LLO haemolytic activity) was < 100 µM.
For C/C=C/C/C=C/CCC(=O)[C@H]1O[C@H]1C(N)=O [cerulenin], the “effect of pre-incubation on probe labeling of KAS II” value [8] was “prevented subsequent probe labeling”.
